Experimental data: patent US20040132795A1, “Methods to screen and treat individuals with glaucoma or the propensity to develop glaucoma” (priority 2001, published 2004)

Experiments:
Type in all cases: in vivo, human
[1] = Treatment with diclofenac in glaucomic patients having the TIGRmt-11 mutation, mean diurnal IOP; settings: 0.1% diclofenac
From the text: The same procedures described in Example II were followed with respect to administering Diclofenac to glaucomic patients having the […]-11 mutation.

[2] = Treatment with diclofenac for 6 months in the presence of the TIGR mt-1 mutation, mean diurnal IOP
From the text: After treatment for 6 months with varying amounts of diclofenac in the presence of the mt-1 mutation, the following results are observed: […]

[3] = Treatment with diclofenac in glaucomic patients possessing both the mt-1 and mt-11 mutations, mean diurnal IOP; settings: 0.1% diclofenac
[4] = 0.03% diclofenac, mt-1 mutation present
[5] = 0.06% diclofenac, mt-1 mutation present
[6] = 0.1% diclofenac, mt-1 mutation present

SMILES: O=C(O)Cc1ccccc1Nc1c(Cl)cccc1Cl [Diclofenac]
- Mean Change in Diurnal IOP at 6 Months ([1]; mt-11 mutation absent): −1.3 mm Hg
- Mean Change in Diurnal IOP at 6 Months ([1]; mt-11 mutation present): −2.0 mm Hg
- Percentage of Patients Exhibiting a Decrease in Diurnal IOP >= 2 mm Hg After 6 Months of Treatment [2, 4]: 36%
- Percentage of subjects exhibiting a Mean Diurnel IOP < 22 mm Hg After 6 Months of Treatment [2, 4]: 55%
- Percentage of Patients Exhibiting a Decrease in Diurnal IOP >= 2 mm Hg After 6 Months of Treatment [2, 5]: 40%
- Percentage of subjects exhibiting a Mean Diurnel IOP < 22 mm Hg After 6 Months of Treatment [2, 5]: 60%
- Mean Change in Diurnal IOP at 6 Months ([2]; 0.1% diclofenac, mt-1 mutation absent): −1.5 mm Hg
- Mean Change in Diurnal IOP at 6 Months [2, 6]: −2.1 mm Hg
- Percentage of Patients Exhibiting a Decrease in Diurnal IOP >= 2 mm Hg After 6 Months of Treatment [2, 6]: 64%
- Percentage of subjects exhibiting a Mean Diurnel IOP < 22 mm Hg After 6 Months of Treatment [2, 6]: 64%
- Mean Change in Diurnal IOP at 6 Months ([3]; mt-1 and mt-11 mutations absent): −0.6 mm Hg
- Mean Change in Diurnal IOP at 6 Months ([3]; mt-1 and mt-11 mutations present): −2.9 mm Hg
